# According to PubChem BioAssay (NCI):
#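 A five-concentration, 48-hour dose response in 96-well plates underlies each endpoint, interpolated linearly between surrounding concentrations. TGI denotes the concentration required for complete inhibition of growth.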
# Legend:
# Test in all cases: DTP human tumour cell line panel, 48 h
# [1] = tested on: A498 renal
# [2] = tested on: CAKI-1 renal
# [3] = tested on: COLO 205 colon
# [4] = tested on: HCT-116 colon
# [5] = tested on: HOP-92 NSCLC
# [6] = tested on: M14 melanoma
# [7] = tested on: MALME-3M melanoma
# [8] = tested on: MDA-MB-435
# [9] = tested on: NCI-H460 lung
# [10] = tested on: SK-MEL-5 melanoma
# [11] = tested on: SNB-75 CNS
# [12] = tested on: T-47D breast
# [13] = tested on: TK-10 renal
# [14] = tested on: U251 CNS
# [15] = tested on: UACC-257 melanoma
# [16] = tested on: UACC-62 melanoma
# [17] = tested on: UO-31 renal
# [18] = tested on: SR leukemia
Compound,TGI [1] [µM],TGI [2] [µM],TGI [3] [µM],TGI [4] [µM],TGI [5] [µM],TGI [6] [µM],TGI [7] [µM],TGI [8] [µM],TGI [9] [µM],TGI [10] [µM],TGI [11] [µM],TGI [12] [µM],TGI [13] [µM],TGI [14] [µM],TGI [15] [µM],TGI [16] [µM],TGI [17] [µM],TGI [18] [µM]
O=C1C=CC=C/C1=C1\N=C(c2ccccc2OCC(=O)c2ccc(Br)cc2)SS1,> 100,> 100,> 100,> 100,> 100,> 100,> 100,> 100,> 100,> 100,44.5,> 100,> 100,> 100,> 100,> 100,> 100,–
CC12CCC([C@H](C(O)C3CCCCC3)C1=O)C2(C)C (stereo not given in full),> 100,> 100,> 100,> 100,> 100,> 100,–,> 100,> 100,> 100,> 100,> 100,> 100,> 100,> 100,> 100,> 100,> 100
O=c1[nH]c(Nc2nc3ccccc3[nH]2)nc2c1CCC2,> 100,> 100,> 100,> 100,> 100,> 100,> 100,> 100,> 100,> 100,77.8,–,> 100,> 100,> 100,> 100,> 100,> 100
CC(=O)N[C@@H](Cc1ccc(O)cn1)C(=O)NCc1cccc(Cl)c1,> 100,> 100,> 100,> 100,–,> 100,–,> 100,> 100,> 100,–,> 100,> 100,> 100,> 100,> 100,> 100,> 100
O=C(O)Cc1cccc2c1OC(c1ccccc1)C(Cl)(C(=O)c1ccccc1)C2=O (stereo not given),–,31.6,–,29.4,–,–,34.9,30.6,55.8,28.6,40.9,40.2,37.2,30.9,32,–,31.9,60.6
O=C(Cc1ccccc1)N/N=C/c1ccccc1O,–,> 100,> 100,> 100,54.8,22.8,66.6,> 100,57.1,49.4,59.8,> 100,> 100,> 100,58,47.9,72.9,> 100
O=C1O/C(=C(/Br)c2ccc(Cl)c(Cl)c2)c2ccccc21,–,> 10,> 10,> 10,> 10,> 10,–,> 10,> 10,> 10,> 10,> 10,> 10,> 10,> 10,> 10,> 10,> 10
CCOC(=O)C1(C(=O)OCC)C[C@H](C)[C@](C)(O)C1,> 100,> 100,> 100,> 100,> 100,> 100,> 100,> 100,> 100,> 100,> 100,–,> 100,> 100,> 100,> 100,> 100,> 100
COc1ccc(C2C3=C(Nc4ncnn42)c2ccccc2OC3c2ccccc2)cc1 (stereo not given),6.36,> 100,> 100,> 100,–,> 100,–,23.7,> 100,62.7,–,59.4,–,> 100,> 100,> 100,> 100,> 100
CCOP(=O)(CN1CCNCCNCC1)OCC,> 100,> 100,> 100,> 100,> 100,> 100,–,> 100,> 100,> 100,> 100,> 100,> 100,> 100,> 100,> 100,> 100,> 100
CCOP(=O)(O)C1C(CO)OC(n2ccc(=O)[nH]c2=O)C1O (stereo not given),> 100,> 100,–,> 100,> 100,> 100,> 100,–,> 100,> 100,> 100,> 100,> 100,–,> 100,> 100,> 100,> 100
Cc1nn(C(=O)Cc2ccccc2)c2c1C(c1ccc(N(C)C)cc1)SC(N)=N2 (stereo not given),> 100,> 100,> 100,> 100,–,> 100,> 100,> 100,> 100,> 100,32.9,> 100,> 100,–,> 100,> 100,> 100,> 100
NC(=S)Nc1ccc(S(=O)(=O)Nc2ccc(S(N)(=O)=O)cc2)cc1,> 100,> 100,> 100,> 100,> 100,> 100,> 100,> 100,> 100,> 100,–,> 100,> 100,> 100,> 100,> 100,> 100,–
CCn1c2ccccc2n2c(=O)c3c(c(C#N)c12)CCCC3,> 100,> 100,> 100,> 100,> 100,> 100,> 100,> 100,> 100,> 100,–,> 100,> 100,> 100,> 100,> 100,> 100,–
O=C1C(Cl)C(c2cccc(Cl)c2)N1c1ccc(-n2c(=S)[nH]c3ccccc3c2=O)cc1 (stereo not given),–,> 100,77.9,85.3,94.5,58.7,> 100,36.6,35.3,31.4,–,> 100,80.1,27.9,98.6,31.5,49,30
NNc1nncc2n[nH]nc12,> 100,> 100,> 100,> 100,–,> 100,–,> 100,> 100,–,85.5,> 100,> 100,> 100,> 100,> 100,> 100,> 100
COC1(OC)CC(CO)(CNc2nc(N)nc(Cl)c2/C=N\O)C1,98.5,> 100,> 100,> 100,89.2,–,> 100,> 100,> 100,> 100,> 100,–,> 100,> 100,> 100,–,> 100,> 100
N#Cc1c(-c2ccccc2)cc(Nc2cccc(C(F)(F)F)c2)n2c1nc1ccccc12,12.6,13.1,2.39,3.52,0.769,–,8.32,17.1,17.7,1.78,9.53,21.1,17.8,10.3,9.76,–,–,–
CCn1c(SCC(=O)NNC(=S)Nc2ccc(C)cc2)nc2ccccc2c1=O,> 100,–,> 100,> 100,–,> 100,> 100,> 100,–,> 100,> 100,> 100,> 100,> 100,> 100,> 100,55.3,> 100
Cc1ccc(-c2c3nc(c(-c4ccc(C)cc4)c4ccc([nH]4)c(-c4ccc(OCC5COC(C)(C)O5)cc4)c4nc(c(-c5ccc(C)cc5)c5ccc2[nH]5)C=C4)C=C3)cc1 (stereo not given),–,> 100,> 31.6,> 31.6,> 100,> 31.6,> 31.6,> 31.6,> 31.6,> 31.6,> 31.6,> 31.6,> 31.6,> 31.6,> 31.6,–,> 31.6,> 31.6
c1ccc(CSP234N5CCN2CCN3CCN4CC5)c(CSP234N5CCN2CCN3CCN4CC5)c1,–,> 100,47.3,> 100,> 100,> 100,–,> 100,> 100,> 100,> 100,> 100,> 100,> 100,> 100,> 100,> 100,> 100
CC1(C)CC(=O)C(/C=N/c2nc(-c3ccccc3)cs2)=C(O)C1,–,–,> 100,> 100,> 100,> 100,–,73.6,> 100,> 100,> 100,> 100,> 100,> 100,> 100,–,> 100,–
CSC1=N/C(=C\c2ccccc2)C(=O)N1CN1CCCCC1,> 100,–,> 100,> 100,> 100,> 100,> 100,> 100,–,> 100,> 100,–,> 100,> 100,–,> 100,> 100,> 100
COc1cc(OC)c2c(=O)c(OC)c(-c3ccc4c(c3)OCO4)oc2c1,57.1,60.5,> 100,> 100,–,> 100,> 100,> 100,> 100,> 100,33.5,> 100,> 100,30.3,> 100,72,> 100,–
C/C=C(/C)C(=O)O[C@H]1C[C@@H]2[C@@H](O)c3occ(C)c3C[C@]2(C)[C@@H](C)C1,–,33.3,30.2,28.5,31.4,29.9,29.2,33,46.8,22.6,–,30,33.8,28.3,23.2,27.2,–,43.8
CN(/N=C/c1ccc(OCc2cccc(COc3ccc(C=O)cc3)n2)cc1)c1cnn(-c2ccc(Cl)cc2Cl)c(=O)c1Cl,> 100,> 100,> 100,> 100,–,> 100,> 100,> 100,> 100,> 100,39.9,> 100,> 100,> 100,> 100,> 100,> 100,> 100
N#C/C(N)=C(\C#N)N=CN,–,–,> 100,> 100,> 100,> 100,> 100,> 100,> 100,> 100,> 100,> 100,> 100,> 100,> 100,> 100,> 100,> 100
O=C1CCCC2(c3ccccc3)Nc3ccccc3N12 (stereo not given),–,> 100,> 100,> 100,> 100,> 100,> 100,> 100,> 100,> 100,> 100,> 100,> 100,> 100,> 100,> 100,> 100,> 100
Cc1ccc(N=Nc2c(C)c(C#N)c(=S)n(C3OC(CO)C(O)C(O)C3O)c2C)cc1 (stereo not given),–,> 100,> 100,62.9,49.3,41.7,42.7,81.2,91.3,35,73.2,46,> 100,52.6,> 100,29,98.8,> 100
